# Measurements: patent publication US10407398B2, “Inhibitors of Pseudomonas aeruginosa LecB” (priority 2015, dated 2019)
# Key:
# [1] = target: T1, LecBPAO1 (Pseudomonas aeruginosa, UniProt Q9HYN5); assay: biochemical; assay type: binding
# T1 construct: made in house
# [2] = target: T2, LecBPA14 (Pseudomonas aeruginosa, UniProt A0A0H2ZE85); assay: biochemical; assay type: binding, Pseudomonas aeruginosa UCBPP-PA14
# Protocol: The measured intensities were reduced by buffer values and fluorescence polarization was calculated. The data were analyzed using BMG Labtech MARS software and/or with Graphpad Prism and fitted according to the four parameter variable slope model. […] A minimum of three independent measurements of triplicates each was performed for every ligand.
# [3] = target: T1, LecBPAO1; assay: Microcalorimetric assay (ITC) for direct binding; settings: for N: ITC binding stoichiometry, one site binding model; for N / ΔG / ΔH / −TΔS: LecBPAO1; for ΔG / ΔH / −TΔS: ITC, 25° C.
# Protocol: (§1) The temperature of the sample cell was 25° C. The titration was performed with a solution of ligands in the same buffer.
# [4] = target: T2, LecBPA14; assay: biochemical; assay type: binding, Pseudomonas aeruginosa UCBPP-PA14; settings: for N: ITC binding stoichiometry, one site binding model; for N / ΔG / ΔH / −TΔS: LecBPA14; for ΔG / ΔH / −TΔS: ITC, 25° C.
# Protocol: as §1
# [5] = target: LecB (Pseudomonas aeruginosa, UniProt Q9HYN5); settings: background art; cited from earlier work
# Chain of LecB (Q9HYN5 entry or part of it): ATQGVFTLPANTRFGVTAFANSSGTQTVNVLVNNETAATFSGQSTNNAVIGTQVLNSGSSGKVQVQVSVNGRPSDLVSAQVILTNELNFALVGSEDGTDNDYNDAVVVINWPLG
# T1 sequence (Q9HYN5 entry or part of it): as above
# T2 sequence (A0A0H2ZE85 entry or part of it): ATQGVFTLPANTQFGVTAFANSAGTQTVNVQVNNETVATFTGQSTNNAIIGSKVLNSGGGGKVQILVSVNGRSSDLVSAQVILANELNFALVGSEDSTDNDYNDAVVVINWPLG
smiles,measurement,setting,value
CC1O[C@H](CNS(=O)(=O)c2ccn(C)n2)C(O)C(O)[C@@H]1O (stereo partly shown),IC50,[1],6790 ± 1810 nM
same,IC50,[2],700 ± 30 nM
CCCCCC[C@@]1(O)C(C)OCC(O)C1O (stereo partly drawn) [1-deoxy-4(S)—C-(hexyl) L-fucose],IC50,[1],610 ± 90 nM
same,IC50,[2],330 ± 160 nM
CC[C@@]1(O)C(C)OCC(O)C1O (stereo partly shown) [drawing 116],Kd,[3],201 ± 42 nM
same,N,[3],1.03 ± 0.13
same,ΔG,[3],-9.13 ± 0.129 kcal/mol
same,ΔH,[3],-12.4 ± 1.09 kcal/mol
same,−TΔS,[3],3.2 ± 1.12 kcal/mol
same,Kd,[4],130 ± 49 nM
same,N,[4],0.96 ± 0.04
same,ΔG,[4],-9.42 ± 0.208 kcal/mol
same,ΔH,[4],-10 ± 0.277 kcal/mol
same,−TΔS,[4],0.619 ± 0.263 kcal/mol
CC1OCC(O)C(O)(C(F)(F)F)[C@@H]1O (stereo partly drawn) [1-deoxy-3(S)—C-(trifluoromethyl)-L-fucose],IC50,[1],> 600000 nM
same,IC50,[2],> 300000 nM
CC1OCC(O)C(O)[C@@]1(O)CC#N (stereo partly drawn) [1-deoxy-4(S)—C-(cyanomethyl) L-fucose],IC50,[1],1690 ± 150 nM
same,IC50,[2],580 ± 110 nM
CC1OCC(O)C(O)[C@]1(C)O (stereo partly drawn) [1-deoxy-4(S)—C-(methyl) L-fucose],IC50,[1],460 ± 70 nM
same,IC50,[2],170 ± 30 nM
CC1OCC(O)C(O)(CN)[C@@H]1O (stereo partly drawn) [1-deoxy-3(S)—C-(aminomethyl)-L-fucose],IC50,[1],> 600000 nM
same,IC50,[2],> 300000 nM
Cc1csc(S(=O)(=O)NC[C@H]2OC(C)[C@@H](O)C(O)C2O)c1 (stereo partly shown),IC50,[1],2510 ± 540 nM
same,IC50,[2],310 ± 40 nM
"CC[C@@]1(O)C(C)OCC(O)C1O (stereo partly drawn) [drawing 82, 1-deoxy-4(S)—C-(ethyl) L-fucose]",IC50,[1],390 ± 60 nM
same,IC50,[2],140 ± 30 nM
Cc1cc(C)c(S(=O)(=O)NC[C@H]2OC(C)[C@@H](O)C(O)C2O)c(C)c1 (stereo partly shown) [drawing 119],Kd,[3],1270 ± 120 nM
same,N,[3],0.99 ± 0.04
same,ΔG,[3],-8.03 ± 0.0574 kcal/mol
same,ΔH,[3],-8.41 ± 0.0096 kcal/mol
same,−TΔS,[3],0.363 ± 0.0502 kcal/mol
same,Kd,[4],310 ± 50 nM
same,N,[4],0.98 ± 0.05
same,ΔG,[4],-8.87 ± 0.105 kcal/mol
same,ΔH,[4],-9.03 ± 0.88 kcal/mol
same,−TΔS,[4],0.155 ± 0.774 kcal/mol
"CC(=O)N[C@H]1C(O)O[C@H](CO)[C@@H](O[C@@H]2O[C@@H](C)[C@@H](O)[C@@H](O)[C@@H]2O)[C@@H]1O[C@@H]1O[C@H](CO)[C@H](O)[C@H](O)[C@H]1O (stereo partly drawn) [Lewis^a trisaccharide, α-Fuc1-4((βGal1-3)-GlcNAc]",Kd,[5],210 nM
CC1OCC(O)C(O)[C@@]1(O)CCNS(C)(=O)=O (stereo partly drawn) [1-deoxy-4(R)—C-(ethylmethylsulfonamide) L-fucose],IC50,[1],440 ± 70 nM
same,IC50,[2],150 ± 20 nM
CC1OCC(O)C(O)(CNS(=O)(=O)C(C)C)[C@@H]1O (stereo partly drawn) [1-deoxy-3(S)—C-(isopropylsulfonamidomethyl)-L-fucose],IC50,[1],> 600000 nM
same,IC50,[2],286000 ± 77000 nM
CC1O[C@H](CNC(=O)/C=C/c2ccccc2)C(O)C(O)[C@@H]1O (stereo partly shown) [drawing 111],IC50,[1],4210 ± 940 nM
same,IC50,[2],2490 ± 200 nM
CCC1(O)C(O)COC(C)[C@H]1O (stereo partly drawn) [1-deoxy-3(S)—C-(ethyl)-L-fucose],IC50,[1],471000 ± 104000 nM
same,IC50,[2],41500 ± 9940 nM
CC1OCC(O)C(O)[C@@]1(O)C1CCCCC1 (stereo partly drawn) [1-deoxy-4(S)—C-(cyclohexyl) L-fucose],IC50,[1],2590 ± 90 nM
same,IC50,[2],750 ± 130 nM
CC1O[C@H](CNC(=O)/C=C/c2ccccc2)C(O)C(O)[C@@H]1O (stereo partly shown) [drawing 118],Kd,[3],3090 ± 840 nM
same,N,[3],0.93 ± 0.01
same,ΔG,[3],-7.53 ± 0.165 kcal/mol
same,ΔH,[3],-7.86 ± 0.394 kcal/mol
same,−TΔS,[3],0.327 ± 0.32 kcal/mol
same,Kd,[4],2590 ± 390 nM
same,N,[4],1.07 ± 0.05
same,ΔG,[4],-7.29 ± 0.523 kcal/mol
same,ΔH,[4],-7.5 ± 0.344 kcal/mol
same,−TΔS,[4],0.21 ± 0.239 kcal/mol
CCC[C@@]1(O)C(C)OCC(O)C1O (stereo partly drawn) [1-deoxy-4(S)—C-(propyl) L-fucose],IC50,[1],660 ± 90 nM
same,IC50,[2],230 ± 50 nM
CC1OCC(O)C(C)(O)[C@@H]1O (stereo partly drawn) [1-deoxy-3(S)—C-(methyl)-L-fucose],IC50,[1],49600 ± 7800 nM
same,IC50,[2],6540 ± 1340 nM
CC(C)CC[C@@]1(O)C(C)OCC(O)C1O (stereo partly drawn) [1-deoxy-4(S)—C-(isopentyl) L-fucose],IC50,[1],780 ± 90 nM
same,IC50,[2],450 ± 120 nM
CC1O[C@H](CNS(=O)(=O)c2cn(C)cn2)C(O)C(O)[C@@H]1O (stereo partly shown),IC50,[1],14200 ± 3570 nM
same,IC50,[2],1860 ± 230 nM
Cc1cc(C)c(S(=O)(=O)NC[C@H]2OC(C)[C@@H](O)C(O)C2O)c(C)c1 (stereo partly shown) [drawing 93],IC50,[1],980 ± 60 nM
same,IC50,[2],420 ± 200 nM
CC1OCC(O)C(O)[C@@]1(O)Cc1ccccc1 (stereo partly drawn) [1-deoxy-4(S)—C-(benzyl) L-fucose],IC50,[1],2610 ± 20 nM
same,IC50,[2],620 ± 80 nM
"CC1OCC(O)C(O)[C@@H]1O (stereo partly drawn) [drawing 74, 1-deoxy-L-fucose, reference compound]",IC50,[1],1550 ± 500 nM
same,IC50,[2],600 ± 140 nM
CC1O[C@H](CNS(=O)(=O)c2ccsc2)C(O)C(O)[C@@H]1O (stereo partly shown),IC50,[1],1850 ± 130 nM
same,IC50,[2],640 ± 270 nM
Cc1cc(S(=O)(=O)NC[C@H]2OC(C)[C@@H](O)C(O)C2O)c(C)s1 (stereo partly shown),N,[3],0.98 ± 0.03
same,ΔH,[3],-11.3 ± 0.287 kcal/mol
same,−TΔS,[3],3.23 ± 0.33 kcal/mol
same,N,[4],0.98 ± 0.06
same,ΔH,[4],-9.66 ± 0.265 kcal/mol
same,−TΔS,[4],0.786 ± 0.402 kcal/mol
CCc1ccc(S(=O)(=O)NC[C@H]2OC(C)[C@@H](O)C(O)C2O)s1 (stereo partly shown),IC50,[1],4220 ± 1130 nM
same,IC50,[2],440 ± 40 nM
Cc1cc(S(=O)(=O)NC[C@H]2OC(C)[C@@H](O)C(O)C2O)c(C(F)(F)F)o1 (stereo partly shown),IC50,[1],3880 ± 700 nM
same,IC50,[2],490 ± 110 nM
CC1O[C@H](CNC(=O)c2ccccc2)C(O)C(O)[C@@H]1O (stereo partly shown),IC50,[1],8730 ± 600 nM
"CC1OCC(O)C(O)[C@@H]1O (stereo partly drawn) [drawing 115, 1-deoxy-L-fucose, reference compound]",Kd,[3],773 ± 110 nM
same,N,[3],1.07 ± 0.03
same,ΔG,[3],-8.34 ± 0.0837 kcal/mol
same,ΔH,[3],-8.68 ± 0.217 kcal/mol
same,−TΔS,[3],0.327 ± 0.272 kcal/mol
same,Kd,[4],453 ± 120 nM
same,N,[4],0.94 ± 0.04
same,ΔG,[4],-8.68 ± 0.153 kcal/mol
same,ΔH,[4],-7.58 ± 0.261 kcal/mol
same,−TΔS,[4],-1.1 ± 0.399 kcal/mol
"CCCC[C@@]1(O)C(C)OCC(O)C1O (stereo partly drawn) [drawing 84, 1-deoxy-4(S)—C-(butyl) L-fucose]",IC50,[1],650 ± 10 nM
same,IC50,[2],230 ± 30 nM
CC1O[C@H](CNS(=O)(=O)c2ccc(Br)s2)C(O)C(O)[C@@H]1O (stereo partly shown),IC50,[1],3200 ± 370 nM
same,IC50,[2],620 ± 390 nM
CC1O[C@H](CNS(=O)(=O)c2ccco2)C(O)C(O)[C@@H]1O (stereo partly shown),IC50,[1],3480 ± 750 nM
same,IC50,[2],480 ± 10 nM
CC1O[C@H](CNC(=O)c2cc3ccccc3o2)C(O)C(O)[C@@H]1O (stereo partly shown),IC50,[1],10200 ± 860 nM
same,IC50,[2],2560 ± 330 nM
CC(C)C(=O)NCC1(O)C(O)COC(C)[C@H]1O (stereo partly drawn) [1-deoxy-3(S)—C-(isobutyrylamidomethyl)-L-fucose],IC50,[1],348000 ± 65000 nM
same,IC50,[2],62600 ± 12400 nM
CCCC[C@@]1(O)C(C)OCC(O)C1O (stereo partly shown) [drawing 117],Kd,[3],401 ± 84 nM
same,N,[3],1.02 ± 0.09
same,ΔG,[3],-8.75 ± 0.0956 kcal/mol
same,ΔH,[3],-11.3 ± 0.12 kcal/mol
same,−TΔS,[3],2.51 ± 0.186 kcal/mol
same,Kd,[4],246 ± 47 nM
same,N,[4],1.03 ± 0.08
same,ΔG,[4],-9.01 ± 0.115 kcal/mol
same,ΔH,[4],-9.42 ± 0.0096 kcal/mol
same,−TΔS,[4],0.394 ± 0.117 kcal/mol
CC1OCC(O)C(O)[C@@]1(O)c1ccccc1 (stereo partly drawn) [1-deoxy-4(S)—C-(phenyl) L-fucose],IC50,[1],4970 ± 360 nM
same,IC50,[2],1480 ± 80 nM
CC1O[C@H](CNS(=O)(=O)c2cccs2)C(O)C(O)[C@@H]1O (stereo partly shown),N,[3],0.92 ± 0.05
same,ΔH,[3],-11.5 ± 0.0956 kcal/mol
same,−TΔS,[3],3.2 ± 0.0335 kcal/mol
same,N,[4],0.87 ± 0.08
same,ΔG,[4],-8.91 ± 0.0693 kcal/mol
same,ΔH,[4],-12 ± 0.617 kcal/mol
same,−TΔS,[4],3.04 ± 0.645 kcal/mol
Cc1ccc(S(=O)(=O)NC[C@H]2OC(C)[C@@H](O)C(O)C2O)s1 (stereo partly shown),IC50,[1],3490 ± 210 nM
same,IC50,[2],650 ± 350 nM
CC(=O)NCC[C@@]1(O)C(C)OCC(O)C1O (stereo partly drawn) [1-deoxy-4(R)—C-(ethylacetamide) L-fucose],IC50,[1],520 ± 30 nM
same,IC50,[2],180 ± 20 nM
